Entries after “also recorded” stand apart in the source; their conditions may differ. No end group written: not given here. *: point of attachment. Biotin = O=C1N[C@H]2[C@H](CS[C@H]2CCCCC(=O)*)N1
B1: E148D: VEGF-DΔNΔC variant with mutation E148D (protein)
chain: DYKDDDDKFYDIETLKVIDEEWQRTQCSPRETCVEVASELGKSTNTFFKPPCVNVFRCGGCCNDESLICMNTSTSYISKQLFEISVPLTSVPELVPVKVANHTGCKCLPTAPRHPYS
B2: S150G: VEGF-DΔNΔC variant with mutation S150G (protein)
chain: DYKDDDDKFYDIETLKVIDEEWQRTQCSPRETCVEVASELGKSTNTFFKPPCVNVFRCGGCCNEEGLICMNTSTSYISKQLFEISVPLTSVPELVPVKVANHTGCKCLPTAPRHPYS
B3: N147Q: VEGF-DΔNΔC variant with mutation N147Q (protein)
chain: DYKDDDDKFYDIETLKVIDEEWQRTQCSPRETCVEVASELGKSTNTFFKPPCVNVFRCGGCCQEESLICMNTSTSYISKQLFEISVPLTSVPELVPVKVANHTGCKCLPTAPRHPYS
B4: L151V: VEGF-DΔNΔC variant with mutation L151V (protein)
chain: DYKDDDDKFYDIETLKVIDEEWQRTQCSPRETCVEVASELGKSTNTFFKPPCVNVFRCGGCCNEESVICMNTSTSYISKQLFEISVPLTSVPELVPVKVANHTGCKCLPTAPRHPYS
B5: S150T: VEGF-DΔNΔC variant with mutation S150T (protein)
chain: DYKDDDDKFYDIETLKVIDEEWQRTQCSPRETCVEVASELGKSTNTFFKPPCVNVFRCGGCCNEETLICMNTSTSYISKQLFEISVPLTSVPELVPVKVANHTGCKCLPTAPRHPYS
B6: E149D: VEGF-DΔNΔC variant with mutation E149D (protein)
chain: DYKDDDDKFYDIETLKVIDEEWQRTQCSPRETCVEVASELGKSTNTFFKPPCVNVFRCGGCCNEDSLICMNTSTSYISKQLFEISVPLTSVPELVPVKVANHTGCKCLPTAPRHPYS

tested on: VEGF-D neutralizing monoclonal antibody mAb 4A5 (VDnmAb); assay: ELISA of biotinylated synthetic peptides on streptavidin plates for VDnmAb binding; settings: 2nd peptide library; 10 pmol peptide; VDnmAb 2 μg/ml; signal more than two-fold greater than background considered positive
From the text: Peptides. A series of synthetic 15-mer peptides (peptides 1 to 35, SEQ ID NOs: 4 to 38 in FIG. 4B, which overlap each other by 12 amino acids) were synthesized (Mimotopes Pty Ltd, Melbourne, Australia). The peptides encompassed the VHD of human VEGF-D (SEQ ID NO: 3, FIG. 4A). Peptide 36 (SEQ ID NO: 39) represented an artificial sequence including a FLAG tag as a positive control for a commercial anti-FLAG mAb (M2; Sigma) that was used as control for non-specific binding to peptides 1 to 35 (SEQ ID NOs: 4 to 38). Biotin was included at the N-terminal of each peptide during synthesis, except that peptide 1 (SEQ ID NO: 4, representing the N-terminal of the VHD) has biotin at the C-terminal. The four-amino acid linker “SGSG” was introduced between the N-terminal of each peptide sequence and biotin to provide more flexibility to peptides after immobilization on streptavidin plates, except peptide 1 (SEQ ID NO: 4) that included the C-terminal linker “GSG”.
ELISA. Reacti-Bind streptavidin high-binding-capacity coated plates (Pierce) were coated with 10 pmol of each peptide in PBS, blocked with 5% milk in PBS-0.1% Tween 20, and incubated with 100 μl of VEGF-D neutralizing monoclonal antibody mAb 4A5 (referred to herein as VDnmAb) or M2 at 2 μg/ml for 1 h at room temperature. Bound mAb was detected with goat anti-mouse IgG coupled with HRP. ABTS was used as the substrate, and the absorbance was read at 405 nm in a multiwell plate reader.
In this 2nd peptide library, biotin was included at the N-terminal of each peptide, and the four-amino acid linker “SGSG” was introduced between each peptide sequence and the biotin residue to provide more flexibility to peptides after immobilization on streptavidin plates. ELISA-based analysis of the 2nd peptide library was carried out as for the 1st peptide library.
Peptide 67 (SEQ ID NO: 141, the same as peptide 36, SEQ ID NO: 39 from the 1st library) and peptide 68 (SEQ ID NO: 142), both containing the FLAG tag, were used as controls. In this 3rd peptide library, biotin was included at the N-terminal of each peptide except peptides 6, 12 and 14 (SEQ ID NOs: 80, 86 and 88) which have C-terminal biotin residues. To provide more flexibility to peptides after immobilization on streptavidin plates, an amino acid linker was introduced between biotin residues and the peptide sequence: “SGSG” for N-terminal biotin; “SGS” for C-terminal biotin. ELISA-based analysis of the 3rd peptide library was carried out as for the 1st peptide library, described in Example 1.

Row | Molecule | VDnmAb binding to peptide (ELISA signal, absorbance at 405 nm)
1 | peptide 23 (SEQ ID NO: 62): 2nd library: single mutation of cysteine in the binding region, C145S (SGSGVNVFRCGGSCNEESL) | very minor or no effect on VDnmAb binding
2 | peptide 24 (SEQ ID NO: 63): 2nd library: single mutation of cysteine in the binding region, C142S (SGSGVNVFRSGGCCNEESL) | very minor or no effect on VDnmAb binding
3 | peptide 25 (SEQ ID NO: 64): 2nd library: mutation of two of the cysteine residues to serine (SGSGVNVFRCGGSSNEESL) | more effect
4 | peptide 26 (SEQ ID NO: 65): 2nd library: mutation of two of the cysteine residues to serine (SGSGVNVFRSGGSCNEESL) | more effect
5 | peptide 27 (SEQ ID NO: 66): 2nd library: mutation of two of the cysteine residues to serine (SGSGVNVFRSGGCSNEESL) | more effect
6 | peptide 28 (SEQ ID NO: 67): 2nd library: mutation of all three cysteine residues to serine (SGSGVNVFRSGGSSNEESL) | significant loss of antibody binding

same assay, conditions: 3rd peptide library; 10 pmol peptide; VDnmAb 2 μg/ml; signal more than two-fold over background considered positive

Row | Molecule | VDnmAb binding to peptide (ELISA signal, absorbance at 405 nm)
7 | peptide 22 (SEQ ID NO: 96): 3rd library: deletion of R141 (SGSGVFCGGCCNEESL) | little or no effect on VDnmAb binding
8 | peptide 23 (SEQ ID NO: 97): 3rd library: mutation N147Q (SGSGVFRCGGCCQEESL) | loss, even complete loss, of VDnmAb binding
9 | peptide 24 (SEQ ID NO: 98): 3rd library: mutation N147A (SGSGVFRCGGCCAEESL) | loss, even complete loss, of VDnmAb binding
10 | peptide 25 (SEQ ID NO: 99): 3rd library: variant with deletion of one of N147, E148, E149, S150 (SGSGVFRCGGCCEESL) | loss of VDnmAb binding
11 | peptide 26 (SEQ ID NO: 100): 3rd library: mutation E148D (SGSGVFRCGGCCNDESL) | loss, even complete loss, of VDnmAb binding
12 | peptide 27 (SEQ ID NO: 101): 3rd library: mutation E148A (SGSGVFRCGGCCNAESL) | loss, even complete loss, of VDnmAb binding
13 | peptide 28 (SEQ ID NO: 102): 3rd library: variant with deletion of one of N147, E148, E149, S150 (SGSGVFRCGGCCNESL) | loss of VDnmAb binding
14 | peptide 29 (SEQ ID NO: 103): 3rd library: mutation E149D (SGSGVFRCGGCCNEDSL) | loss, even complete loss, of VDnmAb binding
15 | peptide 30 (SEQ ID NO: 104): 3rd library: mutation E149A (SGSGVFRCGGCCNEASL) | loss, even complete loss, of VDnmAb binding
16 | peptide 31 (SEQ ID NO: 105): 3rd library: double mutation E148D/E149D (SGSGVFRCGGCCNDDSL) | loss, even complete loss, of VDnmAb binding
17 | peptide 32 (SEQ ID NO: 106): 3rd library: double mutation E148A/E149A (SGSGVFRCGGCCNAASL) | loss, even complete loss, of VDnmAb binding
18 | peptide 33 (SEQ ID NO: 107): 3rd library: variant with deletion of one of N147, E148, E149, S150 (SGSGVFRCGGCCNSL) | loss of VDnmAb binding
19 | peptide 58 (SEQ ID NO: 132): 3rd library: deletion of most of the cysteine and glycine residues at positions 142 to 146 (Biotin-SGSGNVFNEESL) | loss, but not complete loss, of binding
20 | peptide 59 (SEQ ID NO: 133): 3rd library: simultaneous changes of most of residues 142 to 146 to alanine (SGSGNVFAAGAAANEESL) | loss, but not complete loss, of binding

tested on: VDnmAb; assay: Western blot of conditioned media containing VEGF-DΔNΔC variants probed with VDnmAb; format: binding; settings: conditioned media of 293-F cells; in comparison to VEGF-DΔNΔC
From the text: Site-directed mutagenesis. DNA encoding VEGF-DΔNΔC, a form of mature human VEGF-D tagged at the N-terminus with the FLAG octapeptide (FIG. 11; SEQ ID NO: 145), was subjected to site-directed mutagenesis by PCR to generate VEGF-DΔNΔC variants. Mutations were introduced by amplification with the following primers: N147Q with 5'-[…] NO: 146) and 5'-[…] with 5'-[…] NO: 148) and 5'-[…] with 5'-[…] NO: 150) and 5'-[…] with 5'-[…] NO: 152) and 5'-[…] with 5'-[…] NO: 154) and 5'-[…] with 5'-[…] NO: 156) and 5'-[…] with 5'-[…] NO: 158) and 5'-[…] NO: 159) (FIG. 12). The desired mutations, as well as the absence of any unwanted mutations, in the resulting DNA fragments were confirmed by nucleotide sequencing. Expression of VEGF-DΔNΔC variants. Plasmids containing DNA encoding VEGF-DΔNΔC or its variants were used for transient transfection of 293-F cells with the FreeStyle MAX 293 Expression System according to manufacturer's instructions (Invitrogen). Cells expressing each variant were cultured in serum-free medium, and 30 ml of conditioned media was collected 7 days post-transfection and used for analysis. Western Blot Analysis. Conditioned media containing different variants of VEGF-DΔNΔC were resolved by SDS-PAGE, transferred to nitrocellulose membrane, probed with M2 anti-FLAG or VDnmAb antibodies labeled with IRDye 800CW according to manufacturer's instructions (LI-COR), and detected with an Odyssey Infrared Imaging System (LI-COR).

Row | Molecule | VDnmAb binding to VEGF-DΔNΔC variant in Western blot
21 | B1 | complete loss of VDnmAb binding
22 | B2 | significantly affected VDnmAb binding; also recorded: significantly affected, but did not eliminate, binding
23 | B3 | significant decrease in the amount of VDnmAb bound
24 | B4 | dramatic decrease in the amount of VDnmAb bound; also recorded: significantly affected VDnmAb binding
25 | B5 | significant decrease in the amount of VDnmAb bound
26 | B6 | dramatic decrease in the amount of VDnmAb bound

— US20110305703A1, “ISOLATED VEGF-C AND VEGF-D PEPTIDES AND USES THEREOF” (Vegenics Pty Limited, priority 2008, published 2011)
